A short description of one data set: in vivo. Set-up: species or system SD rats. The following applies: rat, po, 15 mg/kg. Here is the method:
Eighteen SD male rats (purchased from Weitong Lihua Experimental Animal Technology Co., Ltd., certificate number: 20211103Aazz0619000910), weighing 240-280 g, were randomly divided into 6 groups, with 3 rats in each group. The animals were fasted overnight before administration. On the day of administration, the compounds of Examples 3, 4, 5, 6, Compound A. and Compound A methyl ester were gavaged to the animals in each groups respectively, and the dosage was 15 mg/kg (calculated as Compound A). Before administration and 0.25, 0.5, 1, 2, 4, 6, 8, and 24 h after administration, 0.15 mL of blood was collected from the animals through the jugular sinus and placed in an EDTA-K2 anticoagulant tube containing 3 μL of dichlorvos aqueous solution (10 mg/mL). After centrifugation, plasma was collected, and was placed in the sample, and then 10 μL of plasma sample was taken, 500 μL of acetonitrile containing IS (verapamil 5 ng·mL^−1, glibenclamide 50 ng·mL^−1, tolbutamide 200 ng·mL^−1, and diclofenac 200 ng·mL^−1) was added, vortexed for 10 min, and then centrifuged at 3700 rpm for 10 min, and then 70 μL of supernatant and 70 μL of water were added, and vortexed for 10 min. An aliquot of 2 μL of the mixture was injected into the LC-MS/MS system (Triple Quad 5500+: LC-MS-MS-022) to measure blood concentration of the compounds. WinNonlin 8.0 software was used to analyze the pharmacokinetic parameters.

The test system of data set [1] is adenosine diphosphate (ADP)-induced platelet aggregation. The following applies: rabbit; from CN101851209B; cited from earlier work.
For data set [2] the following is noted: background statement; cited from earlier work.
The conditions of data set [3]: background statement; cited from earlier work. The source holds these as a separate data set.
Data set [4] deals with arteriovenous bypass thrombi in rats. In words: Antithrombotic activity in vivo: arteriovenous bypass thrombosis in rats. The following applies: for inhibition at 15 mg/kg: Rattus norvegicus, po.
Method: Each group was given corresponding drugs by gavage (dosage was 15 mg/kg), and the normal control group was given an equal volume of solvent, all of which were given by single gavage. One hour after the last administration, the rats were anesthetized with 3% chloral hydrate intraperitoneally, and the right common carotid artery and left external jugular vein were isolated in a supine position. A polyethylene tube was taken with an inner diameter of 1.5 mm and a length of 10 cm, a 6 cm long silk thread (pre-weighed) was inserted into it, and the polyethylene tube was filled with normal saline solution of heparin (50 U/ml). One end of the polyethylene tube was inserted into the left external jugular vein, heparin (50 U/kg) was injected, and the other end was inserted into the right common carotid artery. After blood flow was opened for 15 minutes, the blood flow was interrupted and the silk thread was quickly taken out and weighed. The total weight minus the original silk thread weight was the wet weight of the thrombus. The silk thread was placed in an oven for drying at 70° C. The dry weight of the thrombus was obtained by weighing the silk thread minus the original silk thread weight, and the inhibition rate was calculated.

Where two headings read alike, the source gives them in different places.

What is called AUC(0-inf) is the area under the concentration-time curve extrapolated to infinity. The term AUC(0-t) denotes exposure summed from dosing to a finite time, without extrapolation to infinity. Read a low AUC(0-t) as less exposure. In general, Cmax refers to the maximum level reached in the sampled fluid or tissue. As usually defined, the MRT last is the average time that molecules of a dose stay in the body. By Tmax is commonly meant the time from dosing to the highest level. As a reminder, the half-life is the time in which the quantity being followed falls by half. With `COC(=O)c1ccc(OCCn2ccnc2)c(OC)c1` [Compound A methyl ester, reference compound], in the data set “in vivo”, the AUC(0-inf) was found to be 1600 ng·h/mL, the AUC(0-t) is 1490 ng·h/mL, the concentration peaked (Cmax) at 513 ng/mL and the “F (bioavailability relative to compound A)” value is listed as 92.18%. Besides, in the data set “in vivo”, the MRT last was determined as 6.5 h, the Tmax is 0.46 h and the half-life is 8.4 h.

In general, inhibition refers to how much of the control response was suppressed. In the data set “in vivo”, `COc1cc(C(=O)O)ccc1OCCn1ccnc1` [Compound A, reference compound] registered an AUC(0-inf) of 1720 ng·h/mL, an AUC(0-t) of 1610 ng·h/mL, a Cmax of 604 ng/mL and an MRT last of 5.4 h. For the same compound, in “in vivo”, the Tmax amounted to 0.35 h and the half-life is 10.7 h. In addition, in data set [1], the “Inhibitory effect on ADP-induced platelet aggregation” value is on record as “significant inhibitory effect”. Further, the Oral bioavailability result in data set [2] is “low”. The “Ability to penetrate the blood-brain barrier” value in data set [3] is recorded as “weak”. In data set [4] (read-out: Inhibition rate (thrombus dry weight)), the inhibition at 15 mg/kg is 36%. The inhibition at 15 mg/kg in data set [4] (read-out: Inhibition rate (thrombus wet weight)) is 31%. Also, the Thrombus wet weight in data set [4] (rat arteriovenous bypass, 15 mg/kg single gavage, 1 h after dosing, 15 min blood flow, x ± s, n = 8) is 69.8 ± 11.2^★★ mg. Besides, the Thrombus dry weight in data set [4] (rat arteriovenous bypass, 15 mg/kg single gavage, thread dried at 70° C., x ± s, n = 8) is recorded as 21.8 ± 6.0^★★ mg.

Take `COc1cc(C(=O)OCCCCCC(=O)O)ccc1OCCn1ccnc1` [Example 3, 6-(4-(2-(1H-imidazol-1-yl)ethoxy)-3-methoxybenzoyloxy)hexanoic acid]: in the data set “in vivo”, the total exposure AUC(0-inf) was 3380 ng·h/mL, the AUC(0-t) is 3230 ng·h/mL, the Cmax turned out to be 8590 ng/mL and the “F (bioavailability relative to compound A)” value is recorded as 200.37%. For the same compound, in “in vivo”, the MRT last was 0.47 h, the time to peak (Tmax) worked out at 0.25 h and the half-life is 3.06 h.

Take `COc1cc(C(=O)OCOC(=O)OC(C)C)ccc1OCCn1ccnc1` [Example 5, ((isopropoxycarbonyl)oxy)methyl-4-(2-(1H-imidazol-1-yl)ethoxy)-3-methoxybenzoate]: in “in vivo”, the AUC(0-inf) came out at 3000 ng·h/mL, the AUC(0-t) was 2890 ng·h/mL, the concentration peaked (Cmax) at 7080 ng/mL and the “F (bioavailability relative to compound A)” value is 179.28%. In addition, in the data set “in vivo”, the MRT last came to 0.85 h, the Tmax was 0.25 h and the half-life is 3.43 h.

As to `COc1cc(C(=O)OC(C)OC(C)=O)ccc1OCCn1ccnc1` (centres unmarked) [Example 6, 1-acetoxyethyl-4-(2-(1H-imidazol-1-yl)ethoxy)-3-methoxybenzoate], in “in vivo”, the AUC(0-inf) came out at 3170 ng·h/mL, the AUC(0-t) came out at 2850 ng·h/mL, the Cmax amounted to 8140 ng/mL and the “F (bioavailability relative to compound A)” value was 176.8%. Further, in the data set “in vivo”, the MRT last turned out to be 1.09 h, the Tmax amounted to 0.25 h and the half-life was 4.86 h.
